Assay results as given in patent publication US20250145632A1, “Pyrimidine Heterocyclic Compound, Preparation Method Thereof and use Thereof in Medicine” (INSILICO MEDICINE IP LIMITED, priority 2021, published 2025).

Key:
[1] = biological target: CDK9/Cyclin T1 (Homo sapiens (Human), UniProt P50750); assay: In-vitro inhibition of CDK9/Cyclin T1 kinase activity (Caliper mobility shift); format: biochemical; conditions: for Ki: Ki calculated from IC50 under Km ATP condition (Cheng and Prusoff); for Selectivity (CDK9 Ki/CDK7 KD): Ki off-target / KD CDK7 (SPR)
Sequence of CDK9/Cyclin T1 (P50750 whole entry): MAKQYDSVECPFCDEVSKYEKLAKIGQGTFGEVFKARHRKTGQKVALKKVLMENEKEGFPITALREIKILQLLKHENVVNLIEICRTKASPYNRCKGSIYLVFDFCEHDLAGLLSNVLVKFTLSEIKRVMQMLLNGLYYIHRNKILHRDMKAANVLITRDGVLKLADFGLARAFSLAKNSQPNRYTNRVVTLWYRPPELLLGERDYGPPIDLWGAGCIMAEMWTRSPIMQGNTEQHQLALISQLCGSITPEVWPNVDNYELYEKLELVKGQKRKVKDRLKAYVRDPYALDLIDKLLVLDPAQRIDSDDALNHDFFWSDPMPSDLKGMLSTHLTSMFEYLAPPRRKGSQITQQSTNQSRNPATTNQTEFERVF
Sequence of CDK9/Cyclin T1 (O60563 whole entry partner): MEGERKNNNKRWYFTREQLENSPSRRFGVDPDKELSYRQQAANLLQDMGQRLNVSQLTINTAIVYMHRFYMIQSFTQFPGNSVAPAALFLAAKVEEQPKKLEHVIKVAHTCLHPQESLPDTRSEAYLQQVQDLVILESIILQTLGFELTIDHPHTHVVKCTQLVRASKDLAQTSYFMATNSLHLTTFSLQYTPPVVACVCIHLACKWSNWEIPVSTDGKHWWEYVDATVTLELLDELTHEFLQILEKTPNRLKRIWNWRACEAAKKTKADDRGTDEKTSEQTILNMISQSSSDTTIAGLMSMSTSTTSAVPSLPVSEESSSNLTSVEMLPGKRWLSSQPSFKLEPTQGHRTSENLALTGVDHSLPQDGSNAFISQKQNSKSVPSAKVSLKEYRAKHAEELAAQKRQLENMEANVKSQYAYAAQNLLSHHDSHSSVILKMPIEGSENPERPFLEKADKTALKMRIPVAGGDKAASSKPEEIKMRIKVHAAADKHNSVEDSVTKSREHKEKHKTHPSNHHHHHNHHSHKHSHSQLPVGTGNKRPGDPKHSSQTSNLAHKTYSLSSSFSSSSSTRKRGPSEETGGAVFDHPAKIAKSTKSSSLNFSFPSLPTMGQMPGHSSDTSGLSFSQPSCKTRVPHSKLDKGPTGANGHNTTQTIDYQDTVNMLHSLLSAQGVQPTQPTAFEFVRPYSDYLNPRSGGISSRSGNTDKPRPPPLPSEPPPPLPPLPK
Excerpt: (§1) CDK2/Cyclin E1 was purchased from Biortus; batch No.: 20150228-BP469/477/691; CDK7/Cyclin H/MAT1 was purchased from Biortus; Batch No.: 20190326-BP487/492/479; CDK9/Cyclin T1 was purchased from Biortus; Batch No.: 20200727-BP488/792/691; CDK12/Cyclin K was purchased from Biortus; Batch No.: 20200526-BP1642/1648/691; MES was purchased from BiRoYee (Baoruyi); Batch No.: 67GR9637; BSA was purchased from Aladdin; Batch No.: H1601024; ATP was purchased from VWR; Batch No.: 97061-226; EDTA was purchased from Sinopharm Group; Batch No.: 20200521; and staurosporine was purchased from Selleckchem; Batch No.: S1421.
(§2) This experiment was used for determining the inhibition of the activities of CDK2, CDK7, CDK9 and CDK12 kinases by the compound. The kinase reaction carried out by the present invention was measured in a 384-well plate, the final measured volume was 16 μl, and the reaction temperature was 27° C. The concentrations of the kinases were determined by optimization experiment. The specific experimental process was as follows: • 1) preparation of kinase solutions: • kinase solution (CDK2/Cyclin E1): the kinase was diluted in a assay buffer solution ((20 mM MES pH 6.75, 0.01% Tween 20, 0.05 mg/mL BSA, 2 mM MgCl2) to obtain an enzyme solution with the corresponding 2.4× concentration; • kinase solution (CDK7/Cyclin H/MAT1): the kinase was diluted in the assay buffer solution (20 mM MES pH 6.75, 0.01% Tween 20, 0.05 mg/mL BSA, 6 mM MgCl2) to obtain an enzyme solution with the corresponding 2.4× concentration; • kinase solution (CDK9/Cyclin T1): the kinase was diluted in the assay buffer solution (20 mM MES pH 6.75, 0.01% Tween 20, 0.05 mg/mL BSA, 10 mM MgCl2) to obtain an enzyme solution with the corresponding 2.4× concentration; and • kinase solution (CDK12/Cyclin K): the kinase was diluted in a assay buffer solution (80 mM MES pH 6.5, 0.01% Tween 20, 0.05 mg/mL BSA, 10 mM MgCl2) to obtain an enzyme solution with the corresponding 2.4× concentration. • 2) Preparation of compound solutions: the compound was dissolved in dimethyl sulfoxide (DMSO) at a concentration of 10 mM, the compound was diluted to 10 concentration gradients of 25 nM to 500 μM with DMSO during use, diluted in ultrapure water by 8.3 times respectively to obtain compound solutions with 6× concentration. • 3) Preparation of a polypeptide substrate and ATP solution: the polypeptide substrate and ATP were diluted in the assay buffer solution to obtain a polypeptide substrate and ATP mixed solution with 2.4× concentration. • 4) Kinase reaction process: • 2 ul of the test compound solution, 5 ul of the polypeptide substrate and ATP mixed solution and 5 ul of an enzyme solution were mixed and incubated at 27° C. (CDK2 was incubated for 60 min, CDK7 was incubated for 70 min, CDK9 was incubated for 70 min, and CDK12 was incubated for 280 min), and then 4 ul of EDTA with a concentration of 150 mM was added into each sample to terminate the reaction. […] The data was calculated with GraphPad Prism version 9.0, and an IC50 value was obtained by adjusting a nonlinear regression model using a dose reaction curve. The calculation formula was Y=Bottom+(Top-Bottom)/(1+10^((LogIC50−X)*HillSlope)). X represents a log value (log of dose or concentration); Y represents an inhibition rate (% inhibition, increasing as x increases) which was increased along with the increase of X; Top represents maximum response; Bottom represents baseline response; and HillSlope represents a curve slope.

[2] = biological target: CDK2/Cyclin E1 (Homo sapiens (Human), UniProt P24941); assay: In-vitro inhibition of CDK2/Cyclin E1 kinase activity (Caliper mobility shift); format: biochemical; conditions: for Ki: Ki calculated from IC50 under Km ATP condition (Cheng and Prusoff); for Selectivity (CDK2 Ki/CDK7 KD): Ki off-target / KD CDK7 (SPR)
Excerpt: as §1, §2

[3] = system: HCC70 human breast ductal cancer cells; assay: HCC70 tumor cell proliferation inhibition (CellTiter-Glo); format: cell-based; conditions: 3 d culture
Protocol: HCC70 was purchased from ATCC; article No.: CRL-2315; RPMI1640 was purchased from Gibco; article No.: 11875-093; Pancreatin (including EDTA) was purchased from Gibco; article No.: 25200-072; FBS was purchased from Gibco; article No.: 10099-141C; CellTiter-Glo was purchased from Promega; article No.: G7573; DMSO was purchased from VWR AMRESCO; article No.: 0231-500ML; Staurosporine was purchased from Selleck; article No.: S1421; a cell counter was purchased from CHEMOMETEC; model: NC-200; and a microplate reader was purchased from PerkinElmer; Model: Envison.
(§3) HCC70 was human breast ductal cancer cells cultured in an RPMI-1640 culture medium containing 10% FBS. Cells in logarithmic phase were taken, and the cells were subjected to digesting, collecting and counting with pancreatin-EDTA, 2000 HCC70 cells/well were inoculated in a 384-well cell plate, and were cultured in 5% CO2 overnight. A 1000× compound stock solution with 3.16 times of gradient concentration was prepared with DMSO, and was diluted 100 times to 10× compound stock solution with a culture medium, and 10× compound stock solution was added into each cell culture well on the next day after cell inoculation, wherein the final concentration was 1×, and the DMSO content was 0.1%. The cell group was treated with DMSO as an experimental control (control), and the cell group was treated with 5 μM of Staurosporine as a blank control (blank).

[4] = biological target: CDK12/Cyclin K (Homo sapiens (Human), UniProt Q9NYV4); assay: In-vitro inhibition of CDK12/Cyclin K kinase activity (Caliper mobility shift); format: biochemical; conditions: for Ki: Ki calculated from IC50 under Km ATP condition (Cheng and Prusoff); for Selectivity (CDK12 Ki/CDK7 KD): Ki off-target / KD CDK7 (SPR)
Sequence of CDK12/Cyclin K (Q9NYV4 whole entry): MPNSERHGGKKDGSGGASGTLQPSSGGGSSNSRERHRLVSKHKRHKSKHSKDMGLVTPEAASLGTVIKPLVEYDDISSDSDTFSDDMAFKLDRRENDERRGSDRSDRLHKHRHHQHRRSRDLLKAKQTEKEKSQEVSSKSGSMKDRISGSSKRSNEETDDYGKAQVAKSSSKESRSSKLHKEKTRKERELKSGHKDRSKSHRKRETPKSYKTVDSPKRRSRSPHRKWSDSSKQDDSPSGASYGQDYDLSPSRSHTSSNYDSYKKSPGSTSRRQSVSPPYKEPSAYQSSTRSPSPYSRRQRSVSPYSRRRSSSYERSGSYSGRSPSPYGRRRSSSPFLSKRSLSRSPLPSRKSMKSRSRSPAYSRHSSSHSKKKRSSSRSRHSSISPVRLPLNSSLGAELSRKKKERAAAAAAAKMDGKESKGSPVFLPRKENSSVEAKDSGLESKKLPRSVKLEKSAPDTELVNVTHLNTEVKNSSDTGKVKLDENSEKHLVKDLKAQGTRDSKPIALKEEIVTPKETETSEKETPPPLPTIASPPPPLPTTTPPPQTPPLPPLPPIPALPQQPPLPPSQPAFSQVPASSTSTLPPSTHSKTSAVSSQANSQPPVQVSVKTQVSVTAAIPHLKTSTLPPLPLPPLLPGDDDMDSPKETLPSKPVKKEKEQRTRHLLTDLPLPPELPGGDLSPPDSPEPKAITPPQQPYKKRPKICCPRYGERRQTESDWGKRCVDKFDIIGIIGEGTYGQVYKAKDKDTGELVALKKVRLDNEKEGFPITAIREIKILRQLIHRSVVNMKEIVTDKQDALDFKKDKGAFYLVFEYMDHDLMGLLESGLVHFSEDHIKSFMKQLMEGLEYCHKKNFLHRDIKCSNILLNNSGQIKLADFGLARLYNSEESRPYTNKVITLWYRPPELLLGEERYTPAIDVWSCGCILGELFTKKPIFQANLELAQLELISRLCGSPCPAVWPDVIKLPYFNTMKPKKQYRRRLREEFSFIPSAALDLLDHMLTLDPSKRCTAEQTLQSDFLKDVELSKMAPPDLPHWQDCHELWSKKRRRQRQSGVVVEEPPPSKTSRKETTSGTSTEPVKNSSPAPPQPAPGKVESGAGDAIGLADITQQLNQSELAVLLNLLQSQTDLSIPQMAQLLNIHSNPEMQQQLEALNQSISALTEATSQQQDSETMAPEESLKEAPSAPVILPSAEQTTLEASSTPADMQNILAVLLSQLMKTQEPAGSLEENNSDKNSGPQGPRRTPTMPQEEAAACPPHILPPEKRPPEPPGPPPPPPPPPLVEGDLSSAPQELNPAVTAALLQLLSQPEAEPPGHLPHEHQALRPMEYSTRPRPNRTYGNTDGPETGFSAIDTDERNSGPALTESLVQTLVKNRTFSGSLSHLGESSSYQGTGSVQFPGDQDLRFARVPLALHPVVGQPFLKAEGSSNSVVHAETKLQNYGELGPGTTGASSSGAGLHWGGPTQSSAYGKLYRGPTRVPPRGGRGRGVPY
Sequence of CDK12/Cyclin K (O75909 whole entry partner): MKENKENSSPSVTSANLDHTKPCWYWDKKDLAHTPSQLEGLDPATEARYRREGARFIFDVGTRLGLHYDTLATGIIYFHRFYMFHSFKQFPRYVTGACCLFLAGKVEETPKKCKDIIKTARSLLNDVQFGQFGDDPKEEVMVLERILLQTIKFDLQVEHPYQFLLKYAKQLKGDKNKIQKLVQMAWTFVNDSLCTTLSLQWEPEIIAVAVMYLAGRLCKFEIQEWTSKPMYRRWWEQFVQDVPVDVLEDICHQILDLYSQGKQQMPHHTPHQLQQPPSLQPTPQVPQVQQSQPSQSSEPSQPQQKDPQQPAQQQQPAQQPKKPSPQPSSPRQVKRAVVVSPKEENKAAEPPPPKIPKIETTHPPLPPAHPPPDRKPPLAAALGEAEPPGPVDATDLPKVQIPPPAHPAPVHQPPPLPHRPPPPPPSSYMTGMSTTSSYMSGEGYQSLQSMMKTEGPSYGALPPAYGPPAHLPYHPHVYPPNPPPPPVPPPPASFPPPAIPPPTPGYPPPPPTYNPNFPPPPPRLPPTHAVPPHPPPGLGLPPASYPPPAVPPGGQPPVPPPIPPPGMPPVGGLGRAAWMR
Excerpt: as §1, §2

[5] = biological target: CDK7/Cyclin H/MAT1 (Homo sapiens (Human), UniProt P50613); assay: In-vitro inhibition of CDK7/Cyclin H/MAT1 kinase activity (Caliper mobility shift); format: biochemical; conditions: ATP 50 μM, 70 min, 27° C.; read-out: CDK7/CyclinH/MAT1 IC50 assay
Sequence of CDK7/Cyclin H/MAT1 (P50613 whole entry): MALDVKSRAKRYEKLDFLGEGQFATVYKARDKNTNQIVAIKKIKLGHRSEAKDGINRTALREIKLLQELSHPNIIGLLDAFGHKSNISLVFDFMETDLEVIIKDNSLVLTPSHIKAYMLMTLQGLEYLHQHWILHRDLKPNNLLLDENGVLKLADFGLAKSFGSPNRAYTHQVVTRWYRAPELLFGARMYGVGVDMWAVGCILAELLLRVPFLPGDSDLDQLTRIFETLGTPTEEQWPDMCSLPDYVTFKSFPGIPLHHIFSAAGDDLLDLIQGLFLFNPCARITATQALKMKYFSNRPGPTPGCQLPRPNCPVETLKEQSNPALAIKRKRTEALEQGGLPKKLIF
Sequence of CDK7/Cyclin H/MAT1 (P51946 whole entry partner): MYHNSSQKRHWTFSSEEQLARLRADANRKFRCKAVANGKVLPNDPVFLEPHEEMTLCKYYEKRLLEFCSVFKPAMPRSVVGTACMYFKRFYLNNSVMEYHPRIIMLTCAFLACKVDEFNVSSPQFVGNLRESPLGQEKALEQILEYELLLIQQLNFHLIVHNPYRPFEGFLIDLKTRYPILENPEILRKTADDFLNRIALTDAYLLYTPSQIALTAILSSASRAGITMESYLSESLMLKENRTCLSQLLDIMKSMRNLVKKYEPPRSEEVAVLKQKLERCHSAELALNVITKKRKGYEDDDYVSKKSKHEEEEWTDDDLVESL
Sequence of CDK7/Cyclin H/MAT1 (P51948 whole entry partner): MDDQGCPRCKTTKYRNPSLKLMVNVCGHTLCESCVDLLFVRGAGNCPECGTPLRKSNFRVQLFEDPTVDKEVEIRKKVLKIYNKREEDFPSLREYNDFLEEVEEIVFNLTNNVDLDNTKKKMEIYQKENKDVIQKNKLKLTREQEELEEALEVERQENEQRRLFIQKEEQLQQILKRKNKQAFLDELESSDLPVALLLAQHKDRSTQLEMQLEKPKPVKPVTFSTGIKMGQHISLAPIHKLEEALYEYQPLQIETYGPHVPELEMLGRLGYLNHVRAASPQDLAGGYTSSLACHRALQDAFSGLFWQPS
Excerpt: as §1
This experiment was used for determining the inhibition of the activities of CDK2, CDK7, CDK9 and CDK12 kinases by the compound. The kinase reaction carried out by the present invention was measured in a 384-well plate, the final measured volume was 16 μl, and the reaction temperature was 27° C. The concentrations of the kinases were determined by optimization experiment. […] The data was calculated with GraphPad Prism version 9.0, and an IC50 value was obtained by adjusting a nonlinear regression model using a dose reaction curve. […]

[6] = system: OVCAR-3 human ovarian adenocarcinoma cells; assay: OVCAR-3 tumor cell proliferation inhibition (CellTiter-Glo); format: cell-based; conditions: 3 d culture
Protocol: OVCAR-3 was purchased from ATCC; article No.: HTB-161; RPMI1640 was purchased from Gibco; article No.: 11875-093; Pancreatin (including EDTA) was purchased from Gibco; article No.: 25200-072; FBS was purchased from Gibco; Article No.: 10091-148; CellTiter-Glo was purchased from Promega; article No.: G7573; Bovine insulin was purchased from absin; article No.: abs9169; DMSO was purchased from VWR AMRESCO; article No.: 0231-500ML; Staurosporine was purchased from Selleck; article No.: S1421; a cell counter was purchased from CHEMOMETEC; model: NC-200; and a microplate reader was purchased from PerkinElmer; Model: Envison.
as §3, with “OVCAR-3” for “HCC70”, “ovarian adenocarcinoma” for “breast ductal cancer”, “20% FBS and 0.01 mg/mL of Bovine insulin.” for “10% FBS.”

[7] = In-vivo pharmacokinetic experiment in male beagles; design: species or system dog; conditions: beagle
Protocol: Experimental method and conditions: male beagles with weight of 8-11 kg were purchased from Jiangsu Marshall Biotechnology Co., Ltd. The to-be-tested compound was administered to 3 dogs at 0.2 mg/kg or 1.0 mg/kg (solvent: 2% DMSO+10% Kolliphor HS 15+88% (6.818% of hydroxypropyl-beta-cyclodextrin aqueous solution), 0.2 mg/mL or 1.0 mg/mL) by intravenous injection, and administered to 3 dogs at 2 mg/kg (solvent: 5% DMSO+95% (10% hydroxypropyl-beta-cyclodextrin salt aqueous solution, 0.4 mg/mL) by oral intragastric administration. Head vein blood sampling was carried out 5 min, 15 min, 30 min, 1 h, 2 h, 4 h, 8 h and 24 h after the administration, and 500 μL of each sample was collected. After collection, the samples were placed on ice, and plasma was centrifugally separated within 15 min for testing. The concentration of the medicine in the plasma was detected by liquid chromatography-tandem mass spectrometry (LC/MS/MS), and pharmacokinetic parameters were calculated with Phoenix WinNonlin software when the concentration was measured.

[8] = intravenous injection 0.2 mg/kg

| Compound | Ki [1] [nM] | Selectivity (CDK9 Ki/CDK7 KD) [1] | Ki [2] [nM] | Selectivity (CDK2 Ki/CDK7 KD) [2] | IC50 [3] [nM] | Ki [4] [nM] | Selectivity (CDK12 Ki/CDK7 KD) [4] | IC50 [5] [nM] | IC50 [6] [nM] | AUC0~inf [7, 8] [ng·h/mL] | CL [7, 8] [mL/min/kg] | T1/2 [7, 8] [h] | Vss [7, 8] [L/kg] | AUC0~inf ([7]; oral administration 2 mg/kg) [ng·h/mL] | Cmax ([7]; oral administration 2 mg/kg) [ng/mL] | F(%) ([7]; oral administration 2 mg/kg) | T1/2 ([7]; oral administration 2 mg/kg) [h] |
| --- | --- | --- | --- | --- | --- | --- | --- | --- | --- | --- | --- | --- | --- | --- | --- | --- | --- |
| CP(C)(=O)c1c2ccc3c(c[nH]c13)-c1nc(ncc1C(F)(F)F)N[C@H]1CC[C@@H](C1)NCCOCCNC2=O [Compound Z7, (4^1S,4^3S)-1^7-(dimethylphosphoryl)-2^5-(trifluoromethyl)-1H-8-oxa-3,5,11-triaza-1(3,6)-indola-2(4,2)-pyrimidina-4(1,3)-cyclopentanacyclododecaphan-12-one] | 217 | (CDK9 Ki/CDK7 KD): 3675 | 33.4 | (CDK2 Ki/CDK7 KD): 566 | 41.1 | 61.4 | (CDK12 Ki/CDK7 KD): 61.35 |  |  |  |  |  |  |  |  |  |  |
| (4^1S, 4^3S)-2^5-(trifluoromethyl)-1^1H-3,5,10-triaza-1(3,6)-indola-2(4,2)-pyrimidina-4(1,3)-cyclopentanacycloundecaphan-11-one [Compound Z2] | 10.6 | (CDK9 Ki/CDK7 KD): 76 | 9.8 | (CDK2 Ki/CDK7 KD): 70 | 207 | 22.7 | (CDK12 Ki/CDK7 KD): 162 | 4.58 |  |  |  |  |  |  |  |  |  |
| CN1C[C@@H](F)CCN(C)[C@H]2CC[C@@H](C2)Nc2ncc(C(F)(F)F)c(n2)-c2c[nH]c3c(P(C)(C)=O)c(ccc23)C1=O [Compound Z79, (4^1S,4^3S,8S)-1^7-(dimethylphosphoryl)-8-fluoro-5,10-dimethyl-2^5-(trifluoromethyl)-1^1H-3,5,10-triaza-1(3,6)-indola-2(4,2)-pyrimidina-4(1,3)-cyclopentanacycloundecaphan-11-one] | 134 | (CDK9 Ki/CDK7 KD): 1103 | 23.3 | (CDK2 Ki/CDK7 KD): 192 | 66.5 | 92.8 | (CDK12 Ki/CDK7 KD): 763 |  | 84 |  |  |  |  |  |  |  |  |
| CN1CC(F)(F)CCN(C)[C@H]2CC[C@@H](C2)Nc2ncc(C(F)(F)F)c(n2)-c2c[nH]c3c(P(C)(C)=O)c(ccc23)C1=O [Compound Z65, (4^1S,43S)-1^7-(dimethylphosphoryl)-8,8-difluoro-5,10-dimethyl-2^5-(trifluoromethyl)-1^1H-3,5,10-triaza-1(3,6)-indola-2(4,2)-pyrimidina-4(1,3)-cyclopentanacycloundecaphan-11-one] | 258 |  |  |  | 46.9 |  |  |  | 254 | 3097 | 1.23 | 3.42 | 0.24 | 45620 | 6623 | 147 | 4.44 |
| O=C1NCCOCCN2CC[C@@H](C2)Nc2ncc(C(F)(F)F)c(n2)-c2c[nH]c3cc1ccc23 [Compound Z1, (4^3S)-2^5-(trifluoromethyl)-1^1H-7-oxa-3,10-diaza-1(3,6)-indola-2(4,2)-pyrimidina-4(3,1)-pyrrolidinacycloundecaphan-11-one] | 52.2 |  | 154 |  |  | 62.6 |  | 11 |  |  |  |  |  |  |  |  |  |
| CP(C)(=O)c1c2ccc3c(c[nH]c13)-c1nc(ncc1C(F)(F)F)N[C@H]1CC[C@@H](C1)NCCCCNC2=O [Compound Z5] | 95.5 | (CDK9 Ki/CDK7 KD): 597 | 25.6 | (CDK2 Ki/CDK7 KD): 160 | 42.7 | 26.1 | (CDK12 Ki/CDK7 KD): 163 |  |  |  |  |  |  |  |  |  |  |
